Test results taken from patent publication US10702530B2, “Screening method” (Hoffmann-La Roche Inc., priority 2013, dated 2020).

Tests used:
[1] = tested on: human fibroblasts; experiment: Cell Index (cellular impedance, xCELLigence) in fibroblasts; format: cell-based; settings: up to 120 hours, 75% cut-off
Procedure: (§1) FIGS. 2A, 2B and 2C. Induction of proliferation arrest and cell death by cpds. Alternating FoxM1 splicing towards FoxM1A in fibroblasts. Human fibroblasts were incubated with cpds. 1-4 at different doses for 5 days (120 hours), and changes in cellular impedance (Cell Index) were assessed online. Data are expressed as delta Cell Index after normalization for the starting value of each well. Data at 72, 96 and 120 hour time points (see arrows) were averaged for quantification. FIG. 2A, Micronuclei induction (MNT) in fibroblasts with increasing doses of cpd. 1-4; FIG. 2B, Dose-dependent induction of cytotoxicity by cpds. 1-4. expressed as % of untreated control after 24 hours. A cut-off at 75% (ED75%, dashed line) defined the concentration at which a meaningful impact on proliferation and cell survival was observed. […] 1-4. expressed as % of untreated control. […]
(§2) For investigation of the effect of altered FoxM1 expression on micronucleus induction (MNT) and cell survival, human fibroblasts were treated for up to 120 hours with cpds. 1-4 in dose response, and MNT, cytotoxicity or Cell Index were assessed on the xCELLigence platform, monitoring proliferation rates and cell death online. To define a quantitative measure for cytotoxic effects, a 2% cut-off for MNT induction (FIG. 2A), a 75% cut-off for cell survival (EC75%), and a 75% cut-off was estimated (ED75%). […]

[2] = tested on: human fibroblasts; experiment: Cytotoxicity in fibroblasts; format: cell-based; settings: dose response, 75% cut-off, 24 hours
Procedure: as §1, §2

[3] = tested on: FoxM1A mRNA; experiment: Upregulation of FoxM1A mRNA by RT-qPCR in human fibroblasts; format: cell-based; settings: Fibroblast, 24 hours, Hill fit, read-out: EC50 for increased expression of FoxM1A mRNA including exon 9
Procedure: (§3) FIGS. 1A, 1B and 1C. Induction of alternative splicing of FoxM1 towards FoxM1A in fibroblasts. Human fibroblasts were incubated with cpds. 1-4 at different doses for 24 hours, and changes in FoxM1A RNA (containing exon A2) and FoxM1B/C (lacking exon A2) mRNA expression were assessed by RT-qPCR. Dose response curves were fitted to a Hill binding equation to estimate the EC50. FIG. 1A., upregulation of FoxM1A mRNA; FIG. 1B., downregulation of FoxM1B/C mRNA; FIG. 1C., Correlation of EC50 values for FoxM1A upregulation and FoxM1B/C downregulation. Data represent means±SEM of 4 independent observations.
(§4) To investigate an effect on splicing of FoxM1, human fibroblasts were treated for 24 hours with cpds. 1-4 in dose response, and analysed by RT-qPCR for presence of mRNA including (FoxM1A) or excluding (FoxM1B/C) the Δ9 exon. The resulting dose response curves were fitted to a Hill binding equation. […] 1, 2, 3 and 4, respectively. […] 1, 2, 3 and 4, respectively.
(§5) Fibroblasts, at 10000 cells per cm^2 were treated with varying doses of compounds ([…]) for 24 hours. RNA extraction was performed as per instructions mentioned in the Ambion® Cells-to-CT™ Kits from Applied Biosystems®. RNA samples were frozen at −20° C. until further analysis. Relative expression levels of FoxM1A or FoxM1B/C along with GAPDH for internal control, was measured using one-step multiplex reverse transcription-polymerase chain reaction (RT-PCR). TaqMan® FAM probes were used for relative quantitation of FoxM1A or FoxM1B/C expression levels and TaqMan® VIC probes were used for relative quantitation of human GAPDH levels. The fidelity of the amplification methods was determined using the ΔΔCt relative quantification method for quantitative PCR.

[4] = tested on: FoxM1B/C mRNA; experiment: Downregulation of FoxM1B/C mRNA by RT-qPCR in human fibroblasts; format: cell-based; settings: Fibroblast, 24 hours, Hill fit, read-out: EC50 for decline of FoxM1B/C mRNAs lacking exon 9
Procedure: as §3, §4, §5

[5] = tested on: human fibroblasts; experiment: Micronuclei induction (MNT) in fibroblasts; format: cell-based; settings: dose response, 2% cut-off
Procedure: as §1, §2

[6] = tested on: human primary myoblasts; experiment: Western blot, actin protein (surrogate for cell number) in proliferating human myoblasts; format: cell-based; settings: proliferating conditions (serum), 5 days, doses up to 10 μM
Procedure: (§6) FIGS. 5A, 5B and 5C. Upregulation of FoxM1A protein correlates with cytotoxicity in myoblasts. Human myoblasts were treated with cpd. 3 (0.1, 1 and 10 μM) for 5 days under proliferating conditions (in the presence of serum), and total protein extracts analyzed by SDS PAGE and Western Blot for FoxM1A and actin protein levels. FIG. 5A, FoxM1A and actin Western blots from samples treated without (control) or with cpd. 3 (0.1, 1 and 10 μM); FIG. 5B, Protein levels of actin (surrogate for cell number); FIG. 5C, FoxM1A/actin ratio. Data represent means±SEM of 3 independent observations. Statistical comparison was performed by one-way ANOVA followed by Dunnet's post-hoc test. *, p<0.05, **, p<0.01, ***, p<0.001.
(§7) To assess if alternative splicing of FoxM1 towards FoxM1A results in meaningful changes in the protein levels and cell death, human primary myoblasts were treated under proliferating conditions to modulate FoxM1 expression and evaluate its consequence. Under proliferative conditions, FoxM1A was detectable by Western Blot, but at low concentrations […]. Treatment with cpd. […]
(§8) Human myoblasts were acquired from ECACC, BT474 cells were obtained from ATCC, and were cultivated according to supplier protocols. […] Fluorescence was acquired with the Odyssey imaging system (Licor Biosciences), FoxM1A intensity was normalized for actin. Data were analyzed using GraphPad software.

[7] = tested on: FoxM1A protein; experiment: Western blot, FoxM1A protein in differentiating (non-proliferating) human myoblasts; format: cell-based; settings: differentiating conditions (no serum), 5 days, doses up to 10 μM
Procedure: (§9) FIGS. 6A and 6B. No change in FoxM1A protein and no cytotoxicity in non-proliferating myoblasts. Human myoblasts were treated with cpd. 3 (0.1, 1 and 10 μM) for 5 days under differentiating conditions (in the absence of serum), and total protein extracts analyzed by SDS PAGE and Western Blot for FoxM1A and actin protein levels. FIG. 6A, FoxM1A and actin Western blots from samples treated without (control) or with cpd. 3 (0.1, 1 and 10 μM). Note that FoxM1A protein was undetectable; FIG. 6B, Protein levels of actin. Data represent means±SEM of 3 independent observations. Statistical comparison was performed by one-way ANOVA followed by Dunnet's post-hoc test.
(§10) To assess if alternative splicing of FoxM1 towards FoxM1A is present also in cells that are not proliferating, the same human primary myoblasts were differentiated to investigate if FoxM1 expression is also present and can be modulated similarly under those conditions. Under differentiating conditions, FoxM1A was undetectable by Western Blot (FIG. 6A). Treatment with cpd.
as §8

[8] = tested on: human primary myoblasts; experiment: Western blot, actin protein in differentiating (non-proliferating) human myoblasts; format: cell-based; settings: differentiating conditions (no serum), 5 days, doses up to 10 μM
Procedure: as §9, §10, §8

[9] = tested on: FoxM1A protein; experiment: Western blot, FoxM1A protein in proliferating human myoblasts; format: cell-based; settings: proliferating conditions (serum), 5 days, highest dose (10 μM)
Procedure: as §6, §7, §8

[10] = tested on: FoxM1A protein; experiment: Western blot, FoxM1A protein in BT474 breast cancer cells; format: cell-based, human; settings: BT474, 10 μM
Procedure: (§11) Upregulation of FoxM1A protein correlates with cytotoxicity in breast cancer cells. Human BT474 breast cancer cells were treated with cpd. 2 at 10 μM for 1 or 2 days under proliferating conditions (in the presence of serum), and total protein extracts analyzed by SDS PAGE and Western Blot for FoxM1A and actin protein levels. To assess if increase in FoxM1A protein by alternative splicing of FoxM1 towards FoxM1A induces cell death in a cancer condition, human breast cancer cells (BT474) were treated to modulate FoxM1 expression, and FoxM1A protein levels were assessed at day 1 and 2 of treatment. On day 1 and 2 under control conditions, FoxM1A was detectable by Western Blot, but at low concentrations. Treatment with cpd. […] 2 at 10 μM, whereas FoxM1A levels were increased in the same samples by nearly 3-fold. When normalized to actin, FoxM1A protein levels increased by 28-fold by treatment with cpd. 2 at 10 μM. […] Data represent means±SEM of 3 independent observations. Statistical comparison was performed by one-way ANOVA followed by Dunnet's post-hoc test. *, p<0.05, ***, p<0.001.
Human myoblasts were acquired from ECACC, BT474 cells were obtained from ATCC, and were cultivated according to supplier protocols. For experimental purpose, human myoblasts were cultivated for 5 days and were treated with varying doses of compounds (0.1-10 μM). BT474 cells were cultivated for up to 2 days and treated with compounds at 10 μM. For Western blot analyses, myoblast cells treated over 5 days or BT474 cells treated for 2 days were lysed in boiling Laemmli buffer (Bio-Rad) containing 100 mM dithiothreitol. SDS PAGE blots were probed with rabbit-anti FoxM1 antibody (Cell Signaling Technology, 1:1000), goat anti-Actin (Santa Cruz Biotechnology, 1:20000) and Alexa680/800 secondary antibodies (Molecular Probes, 1:10,000). Fluorescence was acquired with the Odyssey imaging system (Licor Biosciences), FoxM1A intensity was normalized for actin. Data were analyzed using GraphPad software.

[11] = tested on: Human BT474 breast cancer cells; experiment: Western blot, actin protein in BT474 breast cancer cells; format: cell-based; settings: BT474, 10 μM
Procedure: as §11, §8

SMILES | Potency in reduction of Cell Index [1] | Potency in cytotoxicity [2] | EC50 [3] | EC50 [4] | Potency in MNT (micronucleus induction) [5] | Reduction of actin protein level compared to controls [6] | FoxM1A levels normalized to actin [7] | Actin protein level compared to controls [8] | Increase of FoxM1A protein level normalized to actin [9] | Increase of FoxM1A protein levels normalized to actin [10] | Effect on FoxM1A protein ([10]; day 1) | Increase of FoxM1A protein levels ([10]; day 2 (same samples)) | Reduction of actin protein ([11]; day 1) | Reduction of actin protein ([11]; day 2)
Cc1cn2nc(-c3cc(=O)n4cc(N5CCNCC5)ccc4n3)cc2c(C)n1 [Compound 4, 2-(4,6-dimethylpyrazolo[1,5-a]pyrazin-2-yl)-7-(piperazin-1-yl)-4H-pyrido[1,2-a]pyrimidin-4-one] | most potent | most potent | 68 nM | 104 nM | most potent | – | – | – | – | – | – | – | – | –
Cc1cn2nc(-c3cc(=O)n4cc(N5CCN(C)CC5)ccc4n3)cc2c(C)n1 [Compound 3, 2-(4,6-dimethylpyrazolo[1,5-a]pyrazin-2-yl)-7-(4-methylpiperazin-1-yl)-4H-pyrido[1,2-a]pyrimidin-4-one] | – | – | 1210 nM | 3540 nM | – | 6 fold | undetectable | not altered | 30 fold | – | – | – | – | –
CCc1nc(C)cn2nc(-c3cc(=O)n4cc(C5=CCNCC5)cc(C)c4n3)cc12 [Compound 2, 2-(4-ethyl-6-methylpyrazolo[1,5-a]pyrazin-2-yl)-9-methyl-7-(1,2,3,6-tetrahydropyridin-4-yl)-4H-pyrido[1,2-a]pyrimidin-4-one] | most potent | most potent | 16 nM | 14 nM | most potent | – | – | – | – | 28 fold | did not have any effect | ~3 fold | 18% | more than 90%
CCN1CCC(c2cc(C)c3nc(-c4cc5c(C)nc(C)cn5n4)cc(=O)n3c2)CC1 [Compound 1, 2-(4,6-dimethylpyrazolo[1,5-a]pyrazin-2-yl)-7-(1-ethylpiperidin-4-yl)-9-methyl-4H-pyrido[1,2-a]pyrimidin-4-one] | – | – | 246 nM | 724 nM | – | – | – | – | – | – | – | – | – | –
